The source made the active and inactive calls.
How the values were obtained:
fMet-Leu-Phe receptor = target: T1, fMet-Leu-Phe receptor (Homo sapiens, UniProt P21462); experiment: formyl peptide receptor binders – dose response (AID 519); format: functional
T1 sequence (P21462 whole entry): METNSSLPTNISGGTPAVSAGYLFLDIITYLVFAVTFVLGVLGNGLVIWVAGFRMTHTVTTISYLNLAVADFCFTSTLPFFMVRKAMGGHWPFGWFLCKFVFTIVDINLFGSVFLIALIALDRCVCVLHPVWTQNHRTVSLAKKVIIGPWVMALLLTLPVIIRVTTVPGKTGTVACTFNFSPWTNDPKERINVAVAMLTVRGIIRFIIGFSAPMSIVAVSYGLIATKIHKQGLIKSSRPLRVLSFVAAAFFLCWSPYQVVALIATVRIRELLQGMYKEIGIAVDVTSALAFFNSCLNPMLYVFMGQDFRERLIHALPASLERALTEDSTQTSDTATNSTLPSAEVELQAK

[1] = RKO cell viability reduction, dose response, CellTiter-Glo luminescence (AID 1117322); format: functional
[2] = SNU-C1 cell viability reduction, dose response, CellTiter-Glo luminescence (AID 1117323); format: functional, cell-based
[3] = cytotoxicity toward Colo320 cells – cell-based, CellTiter-Glo luminescence, IC50, dose response (AID 1117334); format: functional; conditions: COLO 320
[4] = Reduced DLD-1 viability, concentration-response, CellTiter-Glo luminescence (AID 1117352); format: functional
[5] = HCT116 cell viability decrease, GSK3B pretreatment – CellTiter-Glo, IC50, dose response (AID 1117339); format: functional; conditions: HCT-116
[6] = cytotoxicity toward HCT116 cells – cell-based, CellTiter-Glo luminescence, IC50, dose response (AID 1117332); format: functional; conditions: HCT-116
[7] = target: Disintegrin and metalloproteinase domain-containing protein 17 (Homo sapiens, UniProt P78536); experiment: exosite inhibitors of ADAM17, dose response, biochemical (AID 743260)
[8] = inhibition of ADAM10 peptide cleavage – biochemical, FRET peptide substrate, recombinant human ADAM10, selectivity assay for ADAM17 exosite inhibitor project, dose response (AID 743259);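 further: ADAM10 enzyme cleaving a FRET peptide substrate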
[9] = NIH3T3 cell viability loss – ATP luminescence, mouse fibroblasts, counter-screen, dose response (AID 2010); format: functional, cell-based;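 further: cells exposed to compound for about 90 hours before reading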
[10] = Trypanosoma cruzi growth suppression in host cells – NIH3T3 host cells, beta-gal luminescence, confirmation (AID 2044); format: functional, cell-based;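 further: intracellular parasites grown in NIH/3T3 mouse fibroblasts as host cells; luminescent beta-galactosidase reporter signal from transgenic T. cruzi replicating inside host cells; inhibitors lower the luminescence signal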
[11] = OVCAR8 cell viability loss – plate reader, dry powder samples, PAX8 project, dose response (AID 743197); format: functional, cell-based; conditions: OVCAR-8
Paired box protein Pax-8 = Paired box protein Pax-8 (Homo sapiens, UniProt Q06710); experiment: PAX8 transcriptional activity inhibition in RMG-I – RMG-I cells, luciferase, cherry-pick, dose response (AID 687027); format: functional, cell-based;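 further: luciferase reporter driven by Pax8 target thyroperoxidase promoter measured by SteadyGlo luminescence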
[12] = toxicity toward immortalized ovarian surface epithelium – cell-based, plate reader, dry powder samples, cytotoxicity control for PAX8 inhibitor project, dose response (AID 743045); format: functional
[13] = OVCAR-3 cell viability loss – plate reader, dry powder samples, PAX8 inhibitor project, dose response (AID 743044); format: functional, cell-based
Cytochrome P450 3A4 = Cytochrome P450 3A4 (Homo sapiens, UniProt P08684); conditions: Potency;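 further: confirmatory qHTS run detecting inhibitors and substrates of CYP3A4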
[14] = general mammalian cell viability loss – inhibitor set, cherry-pick, set 2, cytotoxicity control for miR-122 modulator project, dose response (AID 720697); format: functional, cell-based
[15] = general mammalian cell viability loss – activator set, cherry-pick, cytotoxicity control for miR-122 modulator project, dose response (AID 720690); format: functional, cell-based;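 further: HEK293T human cells scored for general mammalian cytotoxicity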
[16] = activation of miR-122 Renilla sensor silencing – cell-based, Huh7 psiCHECK-miR122, Renilla luciferase, cherry-picked, dose response (AID 651956); format: functional;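 further: huh7 hepatoma cells stably carrying a psiCHECK-2 miR-122 sensor plasmid; renilla luciferase signal reporting endogenous miR-122 activity after 48 h compound exposure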
Estrogen receptor = target: T2, Estrogen receptor (Homo sapiens, UniProt P03372);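 further: potency for inhibiting coactivator peptide recruitment to the receptor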
T2 sequence (P03372 whole entry): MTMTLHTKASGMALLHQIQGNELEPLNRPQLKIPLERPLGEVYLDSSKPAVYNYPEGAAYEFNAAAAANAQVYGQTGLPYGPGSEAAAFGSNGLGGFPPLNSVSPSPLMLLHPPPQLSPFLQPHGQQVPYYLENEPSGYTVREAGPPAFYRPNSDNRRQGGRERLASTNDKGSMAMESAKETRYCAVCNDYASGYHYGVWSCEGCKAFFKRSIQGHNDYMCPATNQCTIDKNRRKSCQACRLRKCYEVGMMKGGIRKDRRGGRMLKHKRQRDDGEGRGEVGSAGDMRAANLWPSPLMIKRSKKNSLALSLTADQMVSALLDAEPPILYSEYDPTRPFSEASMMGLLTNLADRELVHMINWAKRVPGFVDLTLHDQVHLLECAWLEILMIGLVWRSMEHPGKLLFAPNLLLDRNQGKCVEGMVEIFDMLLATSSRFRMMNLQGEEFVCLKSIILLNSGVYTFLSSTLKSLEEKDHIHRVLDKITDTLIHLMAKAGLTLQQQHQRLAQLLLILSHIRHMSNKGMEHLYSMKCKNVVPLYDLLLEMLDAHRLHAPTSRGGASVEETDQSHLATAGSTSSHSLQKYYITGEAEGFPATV

Sequence of Cytochrome P450 3A4 (P08684 whole entry): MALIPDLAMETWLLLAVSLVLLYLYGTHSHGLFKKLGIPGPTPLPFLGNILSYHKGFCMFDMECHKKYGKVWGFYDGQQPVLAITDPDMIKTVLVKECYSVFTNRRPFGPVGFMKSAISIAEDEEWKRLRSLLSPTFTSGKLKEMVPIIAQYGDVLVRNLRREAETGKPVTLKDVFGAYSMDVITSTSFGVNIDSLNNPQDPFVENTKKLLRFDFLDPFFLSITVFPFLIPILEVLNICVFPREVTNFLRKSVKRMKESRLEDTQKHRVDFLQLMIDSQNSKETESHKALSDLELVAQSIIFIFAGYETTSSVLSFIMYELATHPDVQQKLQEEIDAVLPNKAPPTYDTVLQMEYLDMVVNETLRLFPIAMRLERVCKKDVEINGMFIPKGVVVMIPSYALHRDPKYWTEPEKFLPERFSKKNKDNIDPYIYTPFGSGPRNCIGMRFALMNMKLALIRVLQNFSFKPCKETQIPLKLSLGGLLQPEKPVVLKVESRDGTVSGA
Sequence of Paired box protein Pax-8 (Q06710 whole entry): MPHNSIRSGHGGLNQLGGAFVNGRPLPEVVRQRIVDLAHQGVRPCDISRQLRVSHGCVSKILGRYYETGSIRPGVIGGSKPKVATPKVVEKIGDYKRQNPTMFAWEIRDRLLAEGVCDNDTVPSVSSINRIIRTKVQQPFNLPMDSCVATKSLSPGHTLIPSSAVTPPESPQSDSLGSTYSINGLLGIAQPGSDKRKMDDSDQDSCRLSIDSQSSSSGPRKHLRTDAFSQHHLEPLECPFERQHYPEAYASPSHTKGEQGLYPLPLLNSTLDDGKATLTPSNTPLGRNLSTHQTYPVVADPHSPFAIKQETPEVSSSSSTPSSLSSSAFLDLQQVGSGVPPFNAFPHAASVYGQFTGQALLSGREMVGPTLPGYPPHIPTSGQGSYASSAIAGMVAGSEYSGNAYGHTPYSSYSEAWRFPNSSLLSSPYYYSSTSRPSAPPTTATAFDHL
Sequence of Disintegrin and metalloproteinase domain-containing protein 17 (P78536 whole entry, the tested form may be a part): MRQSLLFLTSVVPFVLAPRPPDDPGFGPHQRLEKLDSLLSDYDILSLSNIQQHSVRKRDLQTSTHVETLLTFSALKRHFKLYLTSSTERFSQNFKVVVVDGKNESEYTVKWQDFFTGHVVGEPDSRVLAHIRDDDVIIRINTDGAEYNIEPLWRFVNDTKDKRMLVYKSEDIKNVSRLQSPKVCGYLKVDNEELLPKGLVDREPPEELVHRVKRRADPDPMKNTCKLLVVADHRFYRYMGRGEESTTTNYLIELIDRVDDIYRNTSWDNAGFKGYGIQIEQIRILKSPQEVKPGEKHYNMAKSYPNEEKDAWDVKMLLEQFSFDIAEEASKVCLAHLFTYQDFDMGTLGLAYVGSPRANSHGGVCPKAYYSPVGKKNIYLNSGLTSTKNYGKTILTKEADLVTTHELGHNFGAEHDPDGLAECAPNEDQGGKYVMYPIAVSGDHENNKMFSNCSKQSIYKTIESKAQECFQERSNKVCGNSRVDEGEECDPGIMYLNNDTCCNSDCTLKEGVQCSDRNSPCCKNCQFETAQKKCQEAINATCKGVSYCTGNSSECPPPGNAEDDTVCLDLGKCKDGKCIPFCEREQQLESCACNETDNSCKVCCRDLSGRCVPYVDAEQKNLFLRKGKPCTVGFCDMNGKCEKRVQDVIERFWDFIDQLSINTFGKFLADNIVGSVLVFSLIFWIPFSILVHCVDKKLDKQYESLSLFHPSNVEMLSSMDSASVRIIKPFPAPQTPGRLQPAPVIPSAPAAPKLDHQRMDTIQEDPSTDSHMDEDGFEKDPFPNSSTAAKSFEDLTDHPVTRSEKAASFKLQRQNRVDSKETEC

## CC(C)CN(CC(C)C)C(=O)CS(=O)(=O)Cc1ccccc1
fMet-Leu-Phe receptor
  Ki: 8.5 µM (active)

## O=C(OCc1ccccc1)c1cccnc1 [BENZYL NICOTINATE]
[1]
  IC50: > 20 µM (inactive)
[2]
  IC50: > 20 µM (inactive)
[3]
  IC50: > 20 µM (inactive)
[4]
  IC50: > 20 µM (inactive)
[5]
  IC50: > 20 µM (inactive)
[6]
  IC50: > 20 µM (inactive)

## Cc1ccc(C(C(=O)NC2CCCCC2)N(Cc2ccccc2)C(=O)Cc2c[nH]c3ccccc23)o1 (stereo not given)
[7]
  IC50: > 69.5 µM (inactive)
[8]
  IC50: 10.3 µM (inactive)

## CSc1ccc(CN2CCN(Cc3ccc([N+](=O)[O-])cc3)CC2)cc1
[9]
  EC50: > 60 µM (inconclusive)
[10]
  EC50: < 0.1 µM (active)
cells
  EC50: 0.135 µM (active)

## O=S(=O)(c1ccccc1F)N1CC[C@H]2[C@H](CO)Nc3ccc(C4=CCCCC4)cc3[C@H]21
[11]
  AC50: 26.7 µM (active)
Paired box protein Pax-8
  AC50: 6.12 µM (active)
[12]
  AC50: 32.9 µM (active)
[13]
  AC50: 18.4 µM (active)

## COC(=O)C/C=C/C(C)C(OCc1cccc(-c2ccccc2)c1)C1CCCCC1 (stereo not given)
Cytochrome P450 3A4
  AC50: 3.98 µM (inconclusive)

## CN1C(=O)c2cc(NC(=O)c3ccc(C(F)(F)F)cc3)ccc2OC[C@@H]2O[C@@H](CC(=O)NC3Cc4ccccc4C3)CC[C@@H]21
[14]
  AC50: < 0.195 µM (active)
[15]
  AC50: 49.1 µM (active)
[16]
  AC50: 4.71 µM (active)

## C=C(Cl)CSC(=S)N(CC)CC [SULFALLATE]
Cytochrome P450 3A4
  AC50: 10 µM (inconclusive)

## Cc1csc2nc(CCNS(=O)(=O)c3ccc4c(c3)OCCO4)cn12
Estrogen receptor
  IC50: 17.1 µM (active)

## O=C(Nc1ccncc1)Nc1ccc(Cl)cc1Cl
[9]
  EC50: > 60 µM (not active)
[10]
  EC50: < 0.1 µM (active)
cells
  EC50: 0.079 µM (active)
